Results as given in the supplement of paper PMC12463676, “Small-molecule dissolution of stress granules by redox modulation benefits ALS models” (Nature Chemical Biology, 2025).

Key:
lipoamide = compound: NC(=O)CCCCC1CCSS1 [lipoamide]; assay: thermal stability z-score vs DMSO; higher = more thermally stabilized by treatment; conditions: HeLa, lipoamide concentration 100 µM
Experimental: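 Cellular thermal proteome profiling in HeLa cells. Cells were treated with 100 µM lipoamide for 1 h, with or without 1 mM arsenate for a further 1 h, then heated to ten temperatures (37-66.3 °C), and soluble protein was quantified by TMT mass spectrometry relative to 0.1% DMSO controls. The thermal stability score (sum of log2 fold changes minus the abundance score) was transformed to a z-score; mean of n = 3 experiments.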

potassium arsenate = compound: O=[As]([O-])(O)O.[K+] [potassium arsenate]; assay: as above; conditions: HeLa; arsenate concentration 1 mM
Experimental: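 Cellular thermal proteome profiling in HeLa cells treated with 1 mM arsenate for 1 h (DMSO pretreatment), heated to ten temperatures (37-66.3 °C). Soluble protein was quantified by TMT mass spectrometry relative to DMSO controls; the thermal stability score was transformed to a z-score; mean of n = 3 experiments.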

[1] = arsenate co-treatment: 1 mM arsenate 1 h
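Also: each temperature applied for 3 min, abundance score taken as mean log2 fold change at the two lowest temperatures, z-score obtained by mean subtraction and division by SD.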

UniProt O43286, sequence (O43286 whole entry): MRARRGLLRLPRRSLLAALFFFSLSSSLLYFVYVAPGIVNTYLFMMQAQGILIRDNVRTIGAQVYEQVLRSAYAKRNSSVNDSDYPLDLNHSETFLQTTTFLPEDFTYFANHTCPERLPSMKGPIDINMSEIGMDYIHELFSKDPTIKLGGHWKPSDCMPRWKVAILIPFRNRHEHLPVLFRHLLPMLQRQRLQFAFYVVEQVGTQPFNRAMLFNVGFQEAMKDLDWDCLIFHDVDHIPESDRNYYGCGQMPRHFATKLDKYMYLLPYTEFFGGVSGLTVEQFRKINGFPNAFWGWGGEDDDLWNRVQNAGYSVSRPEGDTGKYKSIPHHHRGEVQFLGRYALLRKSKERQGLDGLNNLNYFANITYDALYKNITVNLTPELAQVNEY
UniProt O43670, sequence (O43670 whole entry): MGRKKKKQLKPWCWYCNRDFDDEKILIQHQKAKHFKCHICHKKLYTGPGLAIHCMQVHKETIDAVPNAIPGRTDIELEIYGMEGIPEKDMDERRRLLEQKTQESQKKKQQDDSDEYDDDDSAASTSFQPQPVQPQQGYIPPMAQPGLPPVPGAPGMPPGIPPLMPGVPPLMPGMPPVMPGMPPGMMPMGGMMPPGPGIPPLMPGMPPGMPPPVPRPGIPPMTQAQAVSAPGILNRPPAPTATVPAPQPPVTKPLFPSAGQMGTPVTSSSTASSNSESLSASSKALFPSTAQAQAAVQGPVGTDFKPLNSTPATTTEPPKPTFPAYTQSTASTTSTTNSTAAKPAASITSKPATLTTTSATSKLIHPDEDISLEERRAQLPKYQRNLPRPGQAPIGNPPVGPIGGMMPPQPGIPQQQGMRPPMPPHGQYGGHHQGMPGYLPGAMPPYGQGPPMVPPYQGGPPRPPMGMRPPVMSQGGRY
UniProt Q8IVB5, sequence (Q8IVB5 whole entry): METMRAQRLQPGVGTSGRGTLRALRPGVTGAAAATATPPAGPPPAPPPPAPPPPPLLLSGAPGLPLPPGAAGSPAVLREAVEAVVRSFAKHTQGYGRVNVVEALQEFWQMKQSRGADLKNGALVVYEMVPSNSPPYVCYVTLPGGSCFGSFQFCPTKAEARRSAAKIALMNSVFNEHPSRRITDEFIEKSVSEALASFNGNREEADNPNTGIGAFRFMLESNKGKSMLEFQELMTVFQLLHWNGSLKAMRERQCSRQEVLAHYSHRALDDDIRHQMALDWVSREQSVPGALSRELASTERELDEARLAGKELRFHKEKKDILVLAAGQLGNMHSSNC
UniProt Q14432, sequence (Q14432 whole entry): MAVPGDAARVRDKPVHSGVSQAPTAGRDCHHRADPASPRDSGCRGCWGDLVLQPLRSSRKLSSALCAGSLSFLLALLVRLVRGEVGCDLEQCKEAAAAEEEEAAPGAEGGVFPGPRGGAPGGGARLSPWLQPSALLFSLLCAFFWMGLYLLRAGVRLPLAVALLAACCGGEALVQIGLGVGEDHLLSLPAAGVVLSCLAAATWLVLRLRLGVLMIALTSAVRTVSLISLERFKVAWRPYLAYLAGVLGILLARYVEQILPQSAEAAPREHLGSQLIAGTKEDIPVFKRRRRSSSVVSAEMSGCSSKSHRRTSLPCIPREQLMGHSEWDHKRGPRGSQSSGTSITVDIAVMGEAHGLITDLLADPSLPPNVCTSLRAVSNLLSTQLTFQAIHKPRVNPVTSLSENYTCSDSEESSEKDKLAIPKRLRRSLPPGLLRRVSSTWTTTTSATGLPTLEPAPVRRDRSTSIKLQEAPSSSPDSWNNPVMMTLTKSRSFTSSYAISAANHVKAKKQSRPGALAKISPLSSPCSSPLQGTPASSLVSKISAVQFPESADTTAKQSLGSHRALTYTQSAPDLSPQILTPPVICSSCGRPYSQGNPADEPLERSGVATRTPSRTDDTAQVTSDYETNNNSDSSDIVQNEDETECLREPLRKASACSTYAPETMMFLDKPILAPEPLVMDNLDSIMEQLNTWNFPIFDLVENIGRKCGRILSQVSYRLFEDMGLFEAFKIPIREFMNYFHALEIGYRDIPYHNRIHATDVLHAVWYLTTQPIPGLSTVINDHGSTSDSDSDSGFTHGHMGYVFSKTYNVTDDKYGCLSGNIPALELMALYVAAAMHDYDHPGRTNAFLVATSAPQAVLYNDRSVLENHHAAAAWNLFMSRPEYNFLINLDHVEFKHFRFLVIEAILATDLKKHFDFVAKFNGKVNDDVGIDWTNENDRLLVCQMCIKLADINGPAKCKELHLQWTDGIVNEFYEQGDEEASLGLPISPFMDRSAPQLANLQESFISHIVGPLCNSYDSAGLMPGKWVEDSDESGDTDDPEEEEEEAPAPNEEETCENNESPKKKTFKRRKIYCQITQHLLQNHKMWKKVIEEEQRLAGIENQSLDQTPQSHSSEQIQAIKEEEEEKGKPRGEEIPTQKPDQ
UniProt P98196, sequence (P98196 whole entry): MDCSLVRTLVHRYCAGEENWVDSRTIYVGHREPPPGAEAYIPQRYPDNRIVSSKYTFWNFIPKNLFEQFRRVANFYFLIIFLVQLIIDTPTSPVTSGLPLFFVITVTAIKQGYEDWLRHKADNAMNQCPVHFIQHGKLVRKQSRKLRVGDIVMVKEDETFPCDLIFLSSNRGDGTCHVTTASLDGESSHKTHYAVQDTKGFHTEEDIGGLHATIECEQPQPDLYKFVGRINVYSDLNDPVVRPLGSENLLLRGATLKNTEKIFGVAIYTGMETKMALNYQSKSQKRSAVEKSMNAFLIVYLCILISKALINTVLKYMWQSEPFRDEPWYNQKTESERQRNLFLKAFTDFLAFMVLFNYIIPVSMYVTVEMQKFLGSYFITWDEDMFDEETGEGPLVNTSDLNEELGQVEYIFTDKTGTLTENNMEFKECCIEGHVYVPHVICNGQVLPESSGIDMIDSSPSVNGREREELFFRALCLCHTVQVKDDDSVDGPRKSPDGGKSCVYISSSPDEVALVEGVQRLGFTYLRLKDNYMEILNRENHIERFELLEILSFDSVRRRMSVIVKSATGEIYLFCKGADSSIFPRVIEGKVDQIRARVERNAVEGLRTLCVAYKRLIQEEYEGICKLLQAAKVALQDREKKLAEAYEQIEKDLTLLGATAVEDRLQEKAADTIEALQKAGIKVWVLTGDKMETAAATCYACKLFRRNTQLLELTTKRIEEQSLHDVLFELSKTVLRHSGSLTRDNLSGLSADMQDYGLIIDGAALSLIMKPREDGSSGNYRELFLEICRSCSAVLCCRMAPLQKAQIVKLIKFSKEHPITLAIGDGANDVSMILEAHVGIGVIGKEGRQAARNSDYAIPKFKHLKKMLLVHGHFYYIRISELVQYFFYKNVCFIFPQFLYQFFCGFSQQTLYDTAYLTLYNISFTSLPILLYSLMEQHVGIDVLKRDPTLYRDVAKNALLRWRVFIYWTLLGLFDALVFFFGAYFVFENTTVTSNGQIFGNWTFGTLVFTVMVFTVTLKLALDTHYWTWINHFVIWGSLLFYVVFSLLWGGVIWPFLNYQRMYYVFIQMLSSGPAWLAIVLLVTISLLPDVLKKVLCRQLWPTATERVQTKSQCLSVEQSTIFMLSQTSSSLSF
UniProt Q96DF8, sequence (Q96DF8 whole entry): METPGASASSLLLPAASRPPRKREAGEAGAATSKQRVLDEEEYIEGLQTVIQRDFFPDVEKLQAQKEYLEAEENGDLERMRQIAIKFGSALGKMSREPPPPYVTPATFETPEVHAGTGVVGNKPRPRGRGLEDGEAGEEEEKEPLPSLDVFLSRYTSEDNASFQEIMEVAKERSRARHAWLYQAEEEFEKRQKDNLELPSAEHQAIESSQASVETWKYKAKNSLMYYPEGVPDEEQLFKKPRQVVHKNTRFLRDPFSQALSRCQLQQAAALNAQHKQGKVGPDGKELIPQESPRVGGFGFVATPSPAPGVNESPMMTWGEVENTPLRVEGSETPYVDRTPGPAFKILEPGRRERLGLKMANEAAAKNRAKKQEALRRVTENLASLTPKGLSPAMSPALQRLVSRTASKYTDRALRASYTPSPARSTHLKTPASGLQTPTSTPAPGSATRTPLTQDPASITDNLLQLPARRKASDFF
UniProt Q6UWP2, sequence (Q6UWP2 whole entry): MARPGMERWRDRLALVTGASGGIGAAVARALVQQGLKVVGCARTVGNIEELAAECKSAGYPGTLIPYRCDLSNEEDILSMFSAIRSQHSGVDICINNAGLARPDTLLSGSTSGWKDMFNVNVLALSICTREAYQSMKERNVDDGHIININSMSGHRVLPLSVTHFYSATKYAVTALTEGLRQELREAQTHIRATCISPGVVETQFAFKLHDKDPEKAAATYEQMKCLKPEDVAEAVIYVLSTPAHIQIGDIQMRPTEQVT
UniProt Q86YV9, sequence (Q86YV9 whole entry): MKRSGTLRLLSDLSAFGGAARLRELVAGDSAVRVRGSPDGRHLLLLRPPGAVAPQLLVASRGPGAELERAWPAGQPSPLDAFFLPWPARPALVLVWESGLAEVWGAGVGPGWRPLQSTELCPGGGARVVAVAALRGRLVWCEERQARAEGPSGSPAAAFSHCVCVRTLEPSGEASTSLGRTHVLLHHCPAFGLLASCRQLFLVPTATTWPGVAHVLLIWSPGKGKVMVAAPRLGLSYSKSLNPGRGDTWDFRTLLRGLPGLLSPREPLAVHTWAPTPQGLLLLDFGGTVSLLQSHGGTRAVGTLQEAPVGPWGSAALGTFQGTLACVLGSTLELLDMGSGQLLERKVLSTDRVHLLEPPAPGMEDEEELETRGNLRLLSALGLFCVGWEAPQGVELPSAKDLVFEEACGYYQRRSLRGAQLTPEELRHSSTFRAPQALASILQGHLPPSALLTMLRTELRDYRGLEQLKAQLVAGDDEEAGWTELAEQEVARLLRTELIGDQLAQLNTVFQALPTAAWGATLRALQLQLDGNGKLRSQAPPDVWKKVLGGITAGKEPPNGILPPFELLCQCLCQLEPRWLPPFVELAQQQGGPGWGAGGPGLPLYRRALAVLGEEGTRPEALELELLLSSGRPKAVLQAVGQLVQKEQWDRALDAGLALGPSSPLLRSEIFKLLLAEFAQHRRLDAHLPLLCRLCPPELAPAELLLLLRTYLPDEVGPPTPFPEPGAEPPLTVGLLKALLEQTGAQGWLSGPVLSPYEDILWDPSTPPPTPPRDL

| Target | thermal stability z-score (lipoamide; [1]) | thermal stability z-score (lipoamide; arsenate co-treatment: none) | thermal stability z-score (potassium arsenate) |
| --- | --- | --- | --- |
| GPD2 (UniProt P43304) | 0.223 | 0.223 | -0.0843 |
| SRRT (UniProt Q9BXP5) | 0.06 | 0.206 | -0.751 |
| SLC25A6 (UniProt P12236) | 0.809 | 0.762 | 0.433 |
| B4GALT5 (UniProt O43286) | -0.000852 | -0.338 | -0.0207 |
| NASP (UniProt P49321) | -0.412 | 0.0851 | 0.578 |
| PDE3A (UniProt Q14432) | 0.363 | 0.131 | -0.555 |
| CYCS (UniProt P99999) | 0.873 | 0.819 | -0.152 |
| ATP11A (UniProt P98196) | -0.441 | 0.419 | -0.309 |
| MYO9B (UniProt Q13459) | -0.266 | -0.1 | -0.364 |
| PMS1 (UniProt P54277) | -0.133 | -0.0146 | -0.486 |
| DGCR14 (UniProt Q96DF8) | -0.552 | 0.06 | 0.724 |
| ADCK4 (UniProt Q96D53) | -2.27 | -0.801 | -0.165 |
| DHRS11 (UniProt Q6UWP2) | 0.484 | 0.188 | 0.252 |
| ODF2 (UniProt Q5BJF6) | 0.0591 | 0.0281 | -0.129 |
| GSTZ1 (UniProt O43708) | -0.243 | 0.0552 | 0.239 |
| COASY (UniProt Q13057) | -0.525 | -0.09 | 0.944 |
| ACTR1A (UniProt P61163) | 0.0148 | 0.0511 | -0.614 |
| ROCK1 (UniProt Q13464) | -0.134 | 0.211 | -0.122 |
| GOT1 (UniProt P17174) | 0.656 | 0.623 | 0.118 |
| EDC4 (UniProt Q6P2E9) | -0.258 | 0.0716 | -0.454 |
| COPS3 (UniProt Q9UNS2) | 0.508 | 0.201 | 0.344 |
| PSPH (UniProt P78330) | 0.359 | 0.393 | 0.056 |
| GTF2A2 (UniProt P52657) | -0.322 | -0.782 | -0.823 |
| OBSL1 (UniProt O75147) | -0.175 | -0.0603 | -0.307 |

| Target | thermal stability z-score (lipoamide; [1]) | thermal stability z-score (lipoamide; arsenate co-treatment: none) | thermal stability z-score (potassium arsenate) |
| --- | --- | --- | --- |
| PLEC (UniProt Q15149) | 2.76 | 2.01 | -3.9 |
| GTF2H1 (UniProt P32780) | -0.0618 | -0.0128 | -0.0702 |
| PC (UniProt P11498) | -0.429 | -0.205 | -0.574 |
| RPL36 (UniProt Q9Y3U8) | 0.354 | -0.0802 | -1.19 |
| DRG1 (UniProt Q9Y295) | -0.143 | -0.213 | 0.121 |
| PDCD4 (UniProt Q53EL6) | -0.493 | -0.0889 | -0.0393 |
| WDYHV1 (UniProt Q96HA8) | 0.206 | 0.157 | -0.625 |
| RPRD1B (UniProt Q9NQG5) | 0.793 | 0.977 | 0.808 |
| XPO1 (UniProt O14980) | 0.211 | 0.4 | 1.4 |
| PPP2R5E (UniProt Q16537) | 0.219 | 0.285 | 0.682 |
| ALG14 (UniProt Q96F25) | -0.0836 | -0.394 | -0.257 |
| STXBP3 (UniProt O00186) | 0.948 | 0.942 | 0.223 |
| BCR (UniProt P11274) | -0.0665 | -0.0479 | 0.0296 |
| PSMB7 (UniProt Q99436) | 1.04 | 0.99 | 0.481 |
| COPS2 (UniProt P61201) | 0.538 | -0.0451 | 0.0289 |
| CD99 (UniProt P14209) | 0.901 | 0.721 | 0.168 |
| DNM2 (UniProt P50570) | -0.494 | -0.287 | 0.304 |
| GFPT1 (UniProt Q06210) | -0.127 | -0.196 | -0.331 |
| ABCF2 (UniProt Q9UG63) | -0.652 | -0.279 | 1.72 |
| MED27 (UniProt Q6P2C8) | -0.0367 | 0.069 | 0.0267 |
| TDP1 (UniProt Q9NUW8) | 0.0423 | -0.0239 | -0.00328 |
| ARHGAP27 (UniProt Q6ZUM4) | -0.103 | -0.156 | -0.309 |
| RECQL (UniProt P46063) | 1.17 | 0.899 | -1.22 |
| XRN2 (UniProt Q9H0D6) | 0.575 | 0.495 | -0.818 |

| Target | thermal stability z-score (lipoamide; [1]) | thermal stability z-score (lipoamide; arsenate co-treatment: none) | thermal stability z-score (potassium arsenate) |
| --- | --- | --- | --- |
| IRS2 (UniProt Q9Y4H2) | -0.525 | -0.112 | -1.42 |
| CDK7 (UniProt P50613) | -0.000906 | -0.0377 | -0.0106 |
| LIX1L (UniProt Q8IVB5) | -0.241 | -0.219 | -0.301 |
| ZNF207 (UniProt O43670) | 0.132 | -0.22 | 0.167 |
| MPRIP (UniProt Q6WCQ1) | 0.435 | 0.401 | 0.452 |
| NUSAP1 (UniProt Q9BXS6) | 0.43 | 0.187 | 0.758 |
| SLC26A6 (UniProt Q9BXS9) | 0.538 | 1.4 | 0.375 |
| DYNLRB1 (UniProt Q9NP97) | -0.37 | 0.743 | 0.237 |
| SLC46A1 (UniProt Q96NT5) | -0.375 | 0.408 | -1.24 |
| KPNB1 (UniProt Q14974) | -0.211 | 0.374 | 0.0471 |
| TMEM59 (UniProt Q9BXS4) | -1.01 | -0.383 | -0.0618 |
| PRG4 (UniProt Q92954) | -2.2 | -2.18 | 0.248 |
| OSMR (UniProt Q99650) | -1.48 | -0.64 | 1.55 |
| COL4A2 (UniProt P08572) | -1.15 | -0.802 | 0.138 |
| RBM28 (UniProt Q9NW13) | -0.0361 | -0.0267 | -0.81 |
| SMYD3 (UniProt Q9H7B4) | -0.135 | -0.101 | -0.25 |
| HPS6 (UniProt Q86YV9) | 0.00908 | 0.132 | -0.0451 |
| CBX5 (UniProt P45973) | -0.00136 | 0.383 | -0.0201 |
| FAM107B (UniProt Q9H098) | -0.0721 | 0.629 | 0.327 |
| PDLIM7 (UniProt Q9NR12) | -0.856 | -0.95 | -1.12 |
| PLS3 (UniProt P13797) | 0.368 | 0.603 | -0.117 |
| PEA15 (UniProt Q15121) | 0.388 | 0.243 | 0.716 |
| SYF2 (UniProt O95926) | 1.83 | 0.837 | -0.951 |
